US20080139664A1, “ANTI-GLYCATION AGENTS FOR PREVENTING AGE-, DIABETES-, AND SMOKING-RELATED COMPLICATIONS” (NATIONAL RESEARCH COUNCIL OF CANADA, priority 2001, published 2008)

What was measured:
human eye = details: topical administration of up to 20%; cited from earlier work
lysozyme = assay: ESI-MS of lysozyme glycoforms after incubation with D-ribose; details: 37° C., 5 days; for Peak area as % of total area of all glycoforms, 14,569: lysozyme + 2D-ribose − 2H2O (14,569 Da); for Peak area as % of total area of all glycoforms, 14,551: lysozyme + 2D-ribose − 3H2O (14,551 Da); for Peak area as % of total area of all glycoforms, 14,533: lysozyme + 2D-ribose − 5H2O (14,533 Da); for Peak area as % of total area of all glycoforms, 14,515: lysozyme + 2D-ribose − 6H2O (14,515 Da); for Peak area as % of total area of all glycoforms, 14,419: lysozyme + D-ribose − 2H2O (14,419 Da); for Peak area as % of total area of all glycoforms, 14,401: lysozyme + D-ribose − 3H2O (14,401 Da); for Peak area as % of total area of all glycoforms, 14,437: lysozyme + D-ribose − H2O (14,437 Da); for Peak area as % of total area of all glycoforms, 14,496: lysozyme + D-ribose − H2O with one carboxymethylated Lys residue (14,496 Da); for Peak area as % of total area of all glycoforms, 14,364: lysozyme with one carboxymethylated Lys residue (14,364 Da); for Peak area as % of total area of all glycoforms, 14,305: unmodified lysozyme (14,305 Da);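 for all read-outs here: lysozyme incubated with D-ribose, with or without anti-glycation agents, then separated by reversed-phase HPLC and analysed by electrospray mass spectrometry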
[1] = test system: bovine serum albumin (BSA); assay: SDS-PAGE assessment of BSA-BSA protein cross-links; type: biochemical; details: mixtures further incubated for 4 weeks; note: key: ++: strongly suppressed; +: suppressed; −: no suppression; *: moderate acceleration of the cross-linking
Procedure: Additionally, protein cross-links were semi-quantitatively assessed by SDS PAGE gel chromatography.
Protein-protein cross-links were characterized by SDS-PAGE. The incubation mixtures used for determination of the amino groups were further incubated for 4 weeks. An aliquot of the solution was applied to Pharmacia SDS FAST gel and the proteins were stained with Coomassie blue.

[2] = test system: bovine serum albumin (BSA); assay: Fluorescamine assay of free primary amino groups of BSA incubated with D-ribose; type: biochemical; details: free primary amino group on BSA after 5 days at 37° C.; agent at 16.8 times IC50; 64% without agent
[3] = test system: bovine serum albumin (BSA); assay: Maillard fluorescence-based assay of AGEs formation, IC50 determination (BSA + D-ribose); details: inhibition of Maillard fluorescence development; 0.075 mM BSA, 50 mM D-ribose, 37° C., 5 days
dopaminergic neurons = details: cited from earlier work

Row | SMILES | effect on intra-ocular pressure (human eye) | Peak area as % of total area of all glycoforms, 14,569 (lysozyme) | Peak area as % of total area of all glycoforms, 14,551 (lysozyme) | Peak area as % of total area of all glycoforms, 14,533 (lysozyme) | Peak area as % of total area of all glycoforms, 14,515 (lysozyme) | Peak area as % of total area of all glycoforms, 14,419 (lysozyme) | Peak area as % of total area of all glycoforms, 14,401 (lysozyme) | Peak area as % of total area of all glycoforms, 14,437 (lysozyme) | Peak area as % of total area of all glycoforms, 14,496 (lysozyme) | Peak area as % of total area of all glycoforms, 14,364 (lysozyme) | Peak area as % of total area of all glycoforms, 14,305 (lysozyme) | Suppression of BSA-BSA cross-links [1] | Unreacted amino group [2] | IC50 [3] | amount of (AP-H2O) glycoform of lysozyme (lysozyme; FIG. 2, in words) | EC50 (dopaminergic neurons; read-out: EC50, reduction of oxidative stress related to glycation) | concentrations of intracellular reactive oxygen species (dopaminergic neurons; treatment with 1 μM)
1 | CC(C)NCC(O)c1ccc(O)c(O)c1.Cl [D-isoproterenol hydrochloride] | did not lower intra-ocular pressure |  |  |  |  |  |  |  |  |  |  |  |  |  |  |  | 
2 | CCC(NC(C)C)C(O)c1ccc(O)c(O)c1 (stereo not drawn) [Isoetharine] |  | 1.6% | 0.7% | 0.9% | 0.9% | 1.6% | 1.3% | 14.3% | 1.4% | 3.9% | 73.4% | + | 70% | 25 µM |  |  | 
3 | N=C(N)NN [Aminoguanidine] |  | 5.7% | 1.2% | 1.1% | 0.7% | 2.6% | 2.1% | 26.2% | 1.4% | 3.2% | 54.5% | + | 68% | 345 µM | reduced |  | 
4 | NC[C@H](O)c1ccc(O)c(O)c1 [noradrenaline] |  |  |  |  |  |  |  |  |  |  |  |  |  |  |  | ~0.3 µM | drastically reduced
